# Laboratory results taken from US5629347A, “Aromatic compounds, pharmaceutical compositions containing them and their use in therapy” (Merck Sharp & Dohme Ltd., priority 1991, dated 1997).
# Structures can show the parent of a compound that is named as a salt.
# Target: human NK1R (Homo sapiens, UniProt P25103)
# Assay: biochemical
# Assay type: binding
# Details: for IC50: displacement of 125I-substance P, human NK1R in COS or CHO cells
# Protocol: To express the cloned human neurokinin-1-receotor (NK1R) transiently in COS, the cDNA for the human NK1R was cloned into the expression vector pCDM9 which was derived from pCDM8 (INVITROGEN) by inserting the ampicillin resistance gene (nucleotide 1973 to 2964 from BLUESCRIPT SK+ (trademark, […], La Jolla, Calif., U.S.A.)) into the Sac II site. Transfection of 20 ug of the plasmid DNA into 10 million COS cells was achieved by electroporation in 800 μl of transfection buffer (135 mM NaCl, 1.2 mM CaCl2, 1.2 mM MgCl2, 2.4 mM K2 HPO4, 0.6 mM KH2 PO4, 10 mM glucose, 10 mM N-2-hydroxyethyl-piperazine-N'-2-ethane sulphonic acid (HEPES) pH 7.4) at 260 V and 950 μF using the IBI GENEZAPPER (trademark IBI, New Haven, Conn., U.S.A.). The cells were incubated in 10% fetal calf serum, 2 mM glutamine, 100 U/ml penicillin-streptomycin, and 90% DMEM media (GIBCO, Grand Island, N.Y., U.S.A.) in 5% CO2 at 37° C. for three days before the binding assay.
# To establish a stable cell line expressing cloned human NK1R, the cDNA was subcloned into the vector pRcCMV (INVITROGEN). Transfection of 20 ug of the plasmid DNA into CHO cells was achieved by electroporation in 800 μl of transfection buffer supplemented with 0.625 mg/ml Herring sperm DNA at 300 V and 950 μF using the IBI GENEZAPPER (IBI). The transfected cells were incubated. in CHO media [10% fetal calf serum, 100 U/ml penicillin-streptomycin, 2 mM glutamine, 1/500 hypoxanthinethymidine (ATCC), 90% IMDM media (JRH BIOSCIENCES, Lenexa, Kans., U.S.A.), 0.7 mg/ml G418 (GIBCO)] in 5% CO2 at 37° C. until colonies were visible. Each colony was separated and propagated. The cell clone with the highest number of human NK1R was selected for subsequent applications such as drug screening.
# The binding assay of human NK1R expressed in either COS or CHO cells is based on the use of ^125 I-substance P (^125 I-SP, from DU PONT, Boston, Mass.) as a radioactively labeled ligand which competes with unlabeled substance P or any other ligand for binding to the human NK1R. […] The tubes were incubated at 4° C. or at room temperature for 1 hour with gentle shaking. The bound radioactivity was separated from unbound radioactivity by GF/C filter (BRANDEL, Gaithersburg, Md.) which was prewetted with 0.1% polyethylenimine. The filter was washed with 3 ml of wash buffer (50 mM Tris pH 7.5, 5 mM MnCl2, 150 mM NaCl) three times and its radioactivity was determined by gamma counter.
# human NK1R, sequence (P25103 whole entry): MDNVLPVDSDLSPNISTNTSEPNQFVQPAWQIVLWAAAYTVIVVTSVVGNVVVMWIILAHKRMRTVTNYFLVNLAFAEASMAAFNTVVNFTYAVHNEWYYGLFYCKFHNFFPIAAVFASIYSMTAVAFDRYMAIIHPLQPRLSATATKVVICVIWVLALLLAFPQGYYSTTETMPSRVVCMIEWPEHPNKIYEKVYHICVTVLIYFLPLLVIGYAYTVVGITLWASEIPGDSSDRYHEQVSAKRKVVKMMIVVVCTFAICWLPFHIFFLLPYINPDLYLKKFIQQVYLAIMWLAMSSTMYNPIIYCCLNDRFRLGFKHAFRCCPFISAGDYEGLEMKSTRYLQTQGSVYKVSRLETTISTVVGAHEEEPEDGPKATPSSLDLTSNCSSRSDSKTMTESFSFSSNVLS
IC50,"inhibition at 1 µM (1 h, @ 1 μM, read-out: Substance P antagonism (%))",SMILES
2 nM,–,"Cc1cc(C)cc(COC[C@H](C(c2ccccc2)c2ccccc2)N(C)C)c1 [Example 55, (S)-2-Dimethylammonium-1-((3,5-dimethylphenyl)methyloxy)-3,3-diphenylpropane Oxalate salt]"
70 nM,–,"CC(=O)NC(COCc1cc(C)cc(C)c1)C(c1ccccc1)c1ccccc1 (centres unmarked) [Example 38, 2-Acetamido-1-(((3,5-dimethyl)phenyl)methyloxy)-3,3-diphenylpronane]"
120 nM,–,"NC(COCc1cccc(Cl)c1)C(c1ccccc1)c1ccccc1 (centres unmarked) [Example 19, 2-Ammonium-1-((3-chlorophenyl)methyloxy)-3,3-diphenylpropane tosylate salt]"
7 nM,–,"CN(CC(N)=O)C(COCc1cc(C(F)(F)F)cc(C(F)(F)F)c1)C(c1ccccc1)c1ccccc1 (centres unmarked) [Example 72, 1-((3,5-Bis(trifluoromethyl)phenyl)methyloxy)-2-(N-((carboxamido)methyl)-N-methyl)ammonium-3,3-diphenylpropane oxalate salt]"
10 nM,–,"CNC(COCc1cc(C)cc(C)c1)C(c1ccccc1)c1ccccc1 (centres unmarked) [Example 6, 2-Methylammonium-1-((3,5-dimethylphenyl)methyloxy)-3,3-diphenylpropane oxalate salt]"
15 nM,–,"CN(C)C(=O)CN(C)C(COCc1cc(C(F)(F)F)cc(C(F)(F)F)c1)C(c1ccccc1)c1ccccc1 (centres unmarked) [Example 49, N-(1-((3',5'-Bis(trifluoromethyl)phenyl)methyloxy)-3,3-diphenylprop-2-yl)-N-methylglycine dimethylamide oxalate salt]"
400 nM,–,"NC(COCc1cccc([N+](=O)[O-])c1)C(c1ccccc1)c1ccccc1 (centres unmarked) [Example 24, 2-Ammonium-1-((3-nitrophenyl)methyloxy)-3,3-diphenylpropane oxalate salt]"
–,48%,"N#Cc1cccc(COCC(N)C(c2ccccc2)c2ccccc2)c1 (centres unmarked) [Example 29, 2-Ammoninm-1-((3-cyanophenyl)methyloxy)-3,3-diphenylpropane oxalate salt]"
18 nM,–,"Cc1cc(C)cc(COC[C@@H](C(c2ccccc2)c2ccccc2)N(C)C)c1 [Example 56, (R)-2-Dimethylammonium-1-((3,5-dimethylphenyl)methyloxy)-3,3-diphenylpropane tosylate salt]"
100 nM,–,"Cc1cc(C)cc(COCC(NCC2CC2)C(c2ccccc2)c2ccccc2)c1 (centres unmarked) [Example 9, 2-Cyclopropylmethylammonium-1-((3,5-dimethylphenyl)methyloxy)-3,3-diphenylpropane tosylate salt]"
1 nM,–,"CN(C)CCNC(=O)CNC(COCc1cc(C(F)(F)F)cc(C(F)(F)F)c1)C(c1ccccc1)c1ccccc1 (centres unmarked) [Example 52, N-(1-((3',5'-Bis(trifluoromethyl)phenyl)methyloxy)-3,3-diphenylprop-2-yl)glycine N',N'-dimethylethylamide bis oxalate salt]"
30 nM,–,"O=C1CCC(C(=O)NC(COCc2cc(C(F)(F)F)cc(C(F)(F)F)c2)C(c2ccccc2)c2ccccc2)N1 (centres unmarked) [Example 63, 1-((3,5-Bis(trifluoromethyl)phenyl)methyloxy)-3,3-diphenyl-2-(pyroglutamylamido)propane]"
20 nM,–,"CCNC(COCc1cc(C)cc(C)c1)C(c1ccccc1)c1ccccc1 (centres unmarked) [Example 7, 2-Ethylammonium-1-((3,5-dimethylphenyl)methyloxy)-3,3-diphenylpropane oxalate salt]"
7 nM,–,"Cc1cc(C)cc(COCC(C(c2ccccc2)c2ccccc2)N(C)CC(N)=O)c1 (centres unmarked) [Example 36, 2-(N-((Carboxamido)methyl)-N-methyl)ammonium-1-((3,5-dimethylphenyl)methyloxy)-3,3-diphenyl propane oxalate salt]"
15 nM,–,"Cc1cc(C)cc(COCC(NCC(=O)NCc2ccccc2)C(c2ccccc2)c2ccccc2)c1 (centres unmarked) [Example 47, N-(1-(((3',5'-Dimethyl)phenyl)methyloxy)-3,3-diphenylprop-2-yl)glycylbenzamide oxalate salt]"
600 nM,–,"NC(COCc1ccccc1)C(c1ccccc1)c1ccccc1 (centres unmarked) [Example 25, 2-Ammonium-1-benzyloxy-3,3-diphenylpropane oxalate salt]"
70 nM,–,"COc1cc(COCC(N)C(c2ccccc2)c2ccccc2)cc(OC)c1 (centres unmarked) [Example 27, 2-Ammonium-1-((3,5-dimethoxyphenyl)methyloxy-3,3-diphenylpropane oxalate salt]"
1 nM,–,"O=C(CNC(COCc1cc(C(F)(F)F)cc(C(F)(F)F)c1)C(c1ccccc1)c1ccccc1)NCCO (centres unmarked) [Example 50, N-(1-((3',5'-Bis(trifluoromethyl)phenyl)methyloxy)-3,3-diphenylprop-2-yl)glycine 2-hydroxyethylamide]"
320 nM,–,"Cc1cc(C)cc(COCC(NCc2ccccc2)C(c2ccccc2)c2ccccc2)c1 (centres unmarked) [Example 11, 2-Benzylammonium-1-((3,5-dimethylphenyl)methyloxy)-3,3-diphenyl propane]"
30 nM,–,"NC(COCc1cc(Br)cc(Br)c1)C(c1ccccc1)c1ccccc1 (centres unmarked) [Example 32, 2-Ammonium-1-((3,5-dibromophenyl)methyloxy)-3,3-diphenylpropane oxalate salt]"
